Square brackets hold non-standard residues; d marks the D form. Peptide text beside a SMILES is read from it. pGlu = O=C1CC[C@@H](C(=O)O)N1
How the values were obtained:
[1] = system: BALB/c ByJ mice; assay: Forced Swim Test (FST); type: in vivo; details: for immobility time: 60 min before test, compared to control group, Fig 1a/1b; for antidepressant effects in the forced swimming test: male balb-c mice
Procedure: (§1) Male, inbred BALB/c ByJ mice (Uludag University, Bursa, Turkey), 7-8 weeks old at their arrival to the laboratory, were used in this study. They were kept in the laboratory for two weeks before the onset of the experiments. Mice were maintained under standard laboratory conditions (12-h light: 12-h dark cycle, lights on 07:00 h, T=21±1°C). All animals received food and water ad libitum. All procedures described in this assay were conducted in accordance with the European Community Council's Directive for the ethical treatment of animals (86/609/EEC) and with the approval of the Kocaeli University Medical Faculty (7/3/2014).
(§2) In the FST, EPM, and locomotor activity tests, the animals were treated with Ani-AKH (1 and 2 mg/kg) (n=9-10), Lia-AKH (1 and 2 mg/kg) (n=10-12) and Pht-HrTH (1 and 2 mg/kg) (n=10-12) or vehicle (saline with 1% DMSO) (n= 10) for 14 days (chronically) and the drugs were administered intraperitoneally (i.p.) 60 min. before each test in a volume of 0.1 ml/10 g body weight. Separate group of animals used in each test.
The FST employed was similar to a previously described method (Porsolt et al, 1977). Briefly, the mice were dropped individually into Plexiglas cylinders (height 25 cm, diameter 10 cm) containing 10 cm of water maintained at 23-25°C and left there for 6 min. Because this is a situation from which they cannot escape, the animals rapidly become immobile, that is, floating in an upright position and making only small movements to keep their heads above water. The duration of immobility was recorded during the last 4 min of the 6-min testing period.
(§3) The results of the FST, EPM, locomotor activity tests were evaluated by one-way ANOVA followed by Tukey's post-hoc test when significant differences were detected. The data are expressed as the mean values ± SEM. The differences were considered to be statistically significant when p was less than 0.05.

[2] = system: BALB/c ByJ mice; assay: Locomotor activity test (open field); type: in vivo; details: for locomotion enhancing effects in the locomotor activity test: male balb-c mice
Procedure: as §1, §2
Locomotor activity was measured using an open field test in a square arena (40 x 40 x 40 cm box). The animal was placed in the center of the apparatus and behaviours were recorded for a period of 5 min using the Etovision-XT video tracking system. The locomotor activity was evaluated by measuring the total distance travelled (cm) in the apparatus and the speed (cm/s) of the animals.
as §3

[3] = system: Emperor dragonfly, Anax imperator; details: low concentrations of the synthetic peptide injected into the Emperor dragonfly; cited from earlier work
[4] = system: BALB/c ByJ mice; assay: Elevated Plus-Maze Test (EPM); type: in vivo
Procedure: as §1, §2
In addition, in the EPM (acute) test, Ani- AKH (0.5 and 1 mg/kg) (n= 10 per group) was also administered, just for one time, before the test to investigate the acute effect of the hormone.
Anxiety related behaviour was measured by the elevated plus-maze test. Experiments were conducted in a dimly lit, semi-soundproof room, illuminated with table lamp (80 lux). Maze was made of wood and consisted of two open (29 cm long × 5 cm wide) and closed arms (29 cm × 5 cm with 15 cm high walls) forming a square cross with a 5 cm square center piece. In order to avoid falls the open arms was surrounded by a short (1 cm) Plexiglas edge. The maze was elevated 40 cm above the floor. Each mice was placed at the center of the maze, facing one of the open arms, and was allowed to explore the maze. The open-arm activity was evaluated as: 1) time spent in the open arms relative to the total time spent in the plus maze (300 s), expressed as a percentage 2) number of entries into the open arms relative to the total number of entries into both open and closed arms, expressed as a percentage. These values were accepted as indexes of anxiety in mice.
as §3

[5] = system: adult females of the firebug, Pyrrhocoris apterus (L.); details: adult female firebugs, cited from earlier work; for walking activity: simultaneously with elevation of lipid level in the haemolymph
[6] = system: Albino Swiss mice; details: cited from earlier work
[7] = system: Albino Swiss mice; details: administered intracerebroventricularly to mice; cited from earlier work
[8] = system: Albino Swiss mice; details: injection to Albino Swiss mice (20-25 g); cited from earlier work
[9] = system: Albino Swiss mice; details: cited from earlier work; remark: listed apart in the source
[10] = 2 mg/kg i.p. for 14 days, compared to control, Fig 3a/3c
[11] = 2 mg/kg i.p. for 14 days, compared to control, Fig 3b/3d
[12] = chronic, 1 mg/kg i.p. for 14 days, Fig 2c/2e
[13] = chronic, 1 mg/kg i.p. for 14 days, Fig 2d/2f
[14] = chronic, 2 mg/kg i.p. for 14 days, Fig 2c/2e
[15] = chronic, 2 mg/kg i.p. for 14 days, Fig 2d/2f

## CC(C)[C@H](NC(=O)[C@@H]1CCC(=O)N1)C(=O)N[C@@H](CC(N)=O)C(=O)N[C@@H](Cc1ccccc1)C(=O)N[C@@H](CO)C(=O)N1CCC[C@H]1C(=O)N[C@@H](CO)C(=O)N[C@@H](Cc1c[nH]c2ccccc12)C(N)=O [Ani-AKH, 5-oxo-L-prolyl-L-valyl-L-asparaginyl-L-phenylalanyl-L-seryl-L-prolyl-L-seryl-L-Tryptophanamide] ([pGlu]VNFSPSW-NH2)
[1]; 1 mg/kg i.p. for 14 days
  immobility time: significantly diminished
[1]; 1 mg/kg i.p.
  antidepressant effects in the forced swimming test: had antidepressant effects
[1]; 2 mg/kg i.p. for 14 days
  immobility time: significantly diminished
[1]; 2 mg/kg i.p.
  antidepressant effects in the forced swimming test: had antidepressant effects
[2]; [10]
  total distance moved: increased
[2]; [11]
  speed of the animals: increased
[2]; 2 mg/kg i.p.
  locomotion enhancing effects in the locomotor activity test: had locomotion enhancing effects
[3]
  haemolymph lipid concentration: increased
[4]; acute, 0.5 mg/kg i.p., one time before the test, Fig 2a
  %time spent in the open arms: significantly increased
[4]; acute, 1 mg/kg i.p., one time before the test, Fig 2b
  %open arm/total arm entries: significantly increased
[4]; administered acutely, 0.5 mg/kg
  anxiolytic effects in the elevated plus maze test: had anxiolytic effects
[4]; administered acutely, 1 mg/kg
  anxiolytic effects in the elevated plus maze test: had anxiolytic effects
[4]; [12]
  %time spent in the open arms: didn't alter
[4]; [13]
  %open arm/total arm entries: didn't alter
[4]; [14]
  %time spent in the open arms: didn't alter
[4]; [15]
  %open arm/total arm entries: didn't alter

## CC(C)[C@H](NC(=O)[C@@H]1CCC(=O)N1)C(=O)N[C@@H](CC(N)=O)C(=O)N[C@@H](Cc1ccccc1)C(=O)N[C@H](C(=O)N1CCC[C@H]1C(=O)N[C@@H](CO)C(=O)N[C@@H](Cc1c[nH]c2ccccc12)C(N)=O)[C@@H](C)O [Lia-AKH, 5-oxo-L-prolyl-L-valyl-L-asparaginyl-L-phenylalanyl-L-threonyl-L-prolyl-L-seryl-L-Tryptophanamide] ([pGlu]VNFTPSW-NH2)
[1]; 1 mg/kg i.p. for 14 days
  immobility time: significantly diminished
[1]; 1 mg/kg i.p.
  antidepressant effects in the forced swimming test: had antidepressant effects
[1]; 2 mg/kg i.p. for 14 days
  immobility time: significantly diminished
[1]; 2 mg/kg i.p.
  antidepressant effects in the forced swimming test: had antidepressant effects
[2]; 1 mg/kg i.p. for 14 days, compared to control, Fig 3c
  total distance moved: increased
[2]; 1 mg/kg i.p. for 14 days, compared to control, Fig 3d
  speed of the animals: increased
[2]; 1 mg/kg i.p.
  locomotion enhancing effects in the locomotor activity test: had locomotion enhancing effects
[2]; [10]
  total distance moved: increased
[2]; [11]
  speed of the animals: increased
[2]; 2 mg/kg i.p.
  locomotion enhancing effects in the locomotor activity test: had locomotion enhancing effects
[4]; [14]
  %time spent in the open arms: significantly increased
[4]; [15]
  %open arm/total arm entries: significantly increased
[4]; given chronically, 2 mg/kg
  anxiolytic effects in the elevated plus maze test: had anxiolytic effects

## CC(C)C[C@H](NC(=O)[C@@H]1CCC(=O)N1)C(=O)N[C@H](C(=O)N[C@@H](Cc1ccccc1)C(=O)N[C@@H](CO)C(=O)N1CCC[C@H]1C(=O)N[C@@H](CC(=O)O)C(=O)N[C@@H](Cc1c[nH]c2ccccc12)C(N)=O)[C@@H](C)O [Pht-HrTH, 5-oxo-L-prolyl-L-leucyl-L-threonyl-L-phenylalanyl-L-seryl-L-prolyl-L-alfa-aspartyl-L-Tryptophanamide] ([pGlu]LTFSPDW-NH2)
[1]; 1 mg/kg i.p. for 14 days
  immobility time: significantly diminished
[1]; 1 mg/kg i.p.
  antidepressant effects in the forced swimming test: had antidepressant effects
[1]; 2 mg/kg i.p. for 14 days
  immobility time: significantly diminished
[1]; 2 mg/kg i.p.
  antidepressant effects in the forced swimming test: had antidepressant effects
[2]; dose not given, i.p.
  locomotion enhancing effects in the locomotor activity test: had locomotion enhancing effects
[2]; dose not printed in the sentence (groups 1 and 2 mg/kg i.p. for 14 days), Fig 3c
  total distance moved: increased
[2]; dose not printed in the sentence (groups 1 and 2 mg/kg i.p. for 14 days), Fig 3d
  speed of the animals: increased
[4]; [12]
  %time spent in the open arms: significantly increased
[4]; [13]
  %open arm/total arm entries: significantly increased
[4]; [14]
  %time spent in the open arms: significantly increased
[4]; [15]
  %open arm/total arm entries: significantly increased
[4]; given chronically, 1 mg/kg
  anxiolytic effects in the elevated plus maze test: had anxiolytic effects
[4]; given chronically, 2 mg/kg
  anxiolytic effects in the elevated plus maze test: had anxiolytic effects

## NCCc1ccc(O)c(O)c1 [dopamine]
[5]
  AKHs level in haemolymph: decreased
  level of AKHs in CNS: no effect
  mobilization of the fat body lipids: mobilized
  walking activity: capable to enhance

## NCCc1c[nH]cn1 [histamine]
[5]
  mobilization of the fat body lipids: mobilized

## NC[C@H](O)c1ccc(O)c(O)c1 [norepinephrine]
[5]
  AKHs level in haemolymph: increased
  level of AKHs in CNS: no effect
  mobilization of the fat body lipids: mobilized
  walking activity: capable to enhance

## NCC(O)c1ccc(O)cc1 (stereo not shown) [octopamine]
[5]
  mobilization of the fat body lipids: mobilized

## NCCc1c[nH]c2ccc(O)cc12 [serotonin]
[5]
  mobilization of the fat body lipids: mobilized

## [pGlu]VNFSPNW-NH2 [periplanetin CC-1]
[6]
  influence on the electric convulsions: no influence
[7]
  peripheral blood glucose level: did not increase
[8]
  analgesic activity: strong analgesic activity
[9]
  mortality in pentetrazole-induced seizures: increased
[9]; pentetrazole-induced seizures
  threshold for tonic seizures: decreased

From patent publication EP3119416B1, “THERAPEUTIC USE OF ADIPOKINETIC HORMONE/RED PIGMENT-CONCENTRATING HORMONE (AKH/RPCH) FAMILY OF PEPTIDES” (Mutlu, Oguz, priority 2015, dated 2017)
